From patent publication US20250041279A1, “THERAPEUTIC MEDICINE FOR HEART DISEASE OR SKELETAL MUSCLE DISEASE” (SHIONOGI & CO., LTD., priority 2021, published 2025)

Columns and labels:
ZDF rats = assay: Lipid in skeletal muscle cells (IMCL) in diabetes model rats, MRS; format: in vivo; conditions: oral twice a day (7 mg/kg then 10 or 23 mg/kg), 24 hours after first administration
Procedure: In order to examine the influence of Compound I-12 on lipid in skeletal muscle cells (IMCL) of diabetic model rats, vehicle or Compound I-12 was orally administered to a spontaneous diabetes model (ZDF rats) twice a day (first morning administration: 7 mg/kg; second afternoon administration: 10 or 23 mg/kg), and 24 hours after the first administration, MR spectroscopy (MRS) data of the tibialis anterior muscle were measured using animal MRI (Varian MRI System 7T/210, Agilent Technologies) under isoflurane anesthesia. The measurement data was analyzed using software for quantitative analysis of MRS data (LCModel), and the quantity of IMCL was calculated as a creatine ratio.

recombinant human ACC2 = recombinant human ACC2 (Homo sapiens (Human), UniProt O00763); assay: Measurement of inhibitory activity of human ACC2 (MALDI-TOF MS); format: biochemical; conditions: read-out: IC50 hACC2
Excerpt: A cDNA encoding human ACC2 protein (27 amino acid residues to 2458 amino acid residues from the N-terminus) was cloned from a human kidney cDNA library (Clontech Laboratories, Inc.), a His-tag sequence was introduced at the 5′ end, and then inserted into pFastBac1 (Invitrogen). A recombinant baculovirus was produced in accordance with the protocol for a Bac-to-Bac baculovirus expression system (Invitrogen), and Sf-9 cells were infected therewith to express human ACC2 protein. The recovered cells were crushed, filtered through a filter, and then subjected to Ni affinity chromatography and anion exchange chromatography. Fractions containing human ACC2 protein were collected to obtain recombinant human ACC2.
The recombinant human ACC1 and the recombinant human ACC2 obtained from the above Preparation Examples were preincubated in an assay buffer (50 mM HEPES-KOH (pH 7.4), 10 mM magnesium chloride, 6 to 10 mM potassium citrate, 4 mM glutathione reduced form, and 1.5 mg/ml bovine serum albumin) for 1 hour. […] Deprotonated ions of the substrate acetyl-CoA (AcCoA) and the reaction product malonyl-CoA (MalCoA) were detected, and the intensity of each signal was used to calculate a conversion rate to malonyl-CoA or succinyl-CoA, i.e., intensity of [MalCoA-H]—/(intensity of [MalCoA-H]-+intensity of [AcCoA.H].). […] The potassium citrate concentration in the assay buffer, the potassium bicarbonate concentration in the substrate solution, and the incubation time were adjusted within the above concentrations or reaction times for each lot of the enzyme to be used.

[1] = test system: leptin receptor deficient mice (db/db mice); assay: Lipid in skeletal muscle cells (IMCL) in diabetes model mice, MRS; format: in vivo; conditions: 15 mg/kg single oral, 6 hours after administration
Procedure: (§1) In order to examine the influence of Compound I-12 on lipid in skeletal muscle cells (IMCL) of diabetes model mice, 6 hours after a single oral administration of a vehicle or Compound I-12 (15 mg/kg) to leptin receptor deficient mice (Leprdb/Leprdb, db/db; db/db mice), MR spectroscopy (MRS) data of the tibialis anterior muscle was measured using animal MRI (Varian MRI System 7T/210, Agilent Technologies) under isoflurane anesthesia. The measurement data was analyzed using software for quantitative analysis of MRS data (LCModel), and the quantity of IMCL was calculated as a creatine ratio.

Atgl knockout mice = assay: Spontaneous motility of Atgl knockout mice; format: in vivo; conditions: 45 mg/kg/10 mL repeated administration, 12 weeks of age, p<0.05, Welch's t test
Procedure: Atgl (adipose-triglyceride lipase) knockout mice are known as non clinical models of TGCV. Atgl knockout mice (KO mice) deficient in the Atgl gene were each produced by a known method.
In order to examine the influence of the compounds of the present invention on spontaneous motility, spontaneous motility of Atgl knockout mice was measured using SCANET MV-40 ([…]) at 12 weeks of age after repeated administration of vehicle or the compounds of the present invention to the Atgl knockout mice. The mice were allowed to stand in a cage placed in the device, and the motility thereof for 30 minutes was measured.

SD rats = assay: Lipid in skeletal muscle cells (IMCL) in SD rats, MRS; format: in vivo; conditions: 20 mg/kg single oral, 24 hours after administration
Procedure: as §1, with “I-13” for “I-12”, “(IMCL), 24” for “(IMCL) of diabetes model mice, 6”, “I-13 (20” for “I-12 (15”, “SD rats,” for “leptin receptor deficient mice (Leprdb/Leprdb, db/db; db/db mice),”

Sequence of recombinant human ACC2 (O00763 27-2458): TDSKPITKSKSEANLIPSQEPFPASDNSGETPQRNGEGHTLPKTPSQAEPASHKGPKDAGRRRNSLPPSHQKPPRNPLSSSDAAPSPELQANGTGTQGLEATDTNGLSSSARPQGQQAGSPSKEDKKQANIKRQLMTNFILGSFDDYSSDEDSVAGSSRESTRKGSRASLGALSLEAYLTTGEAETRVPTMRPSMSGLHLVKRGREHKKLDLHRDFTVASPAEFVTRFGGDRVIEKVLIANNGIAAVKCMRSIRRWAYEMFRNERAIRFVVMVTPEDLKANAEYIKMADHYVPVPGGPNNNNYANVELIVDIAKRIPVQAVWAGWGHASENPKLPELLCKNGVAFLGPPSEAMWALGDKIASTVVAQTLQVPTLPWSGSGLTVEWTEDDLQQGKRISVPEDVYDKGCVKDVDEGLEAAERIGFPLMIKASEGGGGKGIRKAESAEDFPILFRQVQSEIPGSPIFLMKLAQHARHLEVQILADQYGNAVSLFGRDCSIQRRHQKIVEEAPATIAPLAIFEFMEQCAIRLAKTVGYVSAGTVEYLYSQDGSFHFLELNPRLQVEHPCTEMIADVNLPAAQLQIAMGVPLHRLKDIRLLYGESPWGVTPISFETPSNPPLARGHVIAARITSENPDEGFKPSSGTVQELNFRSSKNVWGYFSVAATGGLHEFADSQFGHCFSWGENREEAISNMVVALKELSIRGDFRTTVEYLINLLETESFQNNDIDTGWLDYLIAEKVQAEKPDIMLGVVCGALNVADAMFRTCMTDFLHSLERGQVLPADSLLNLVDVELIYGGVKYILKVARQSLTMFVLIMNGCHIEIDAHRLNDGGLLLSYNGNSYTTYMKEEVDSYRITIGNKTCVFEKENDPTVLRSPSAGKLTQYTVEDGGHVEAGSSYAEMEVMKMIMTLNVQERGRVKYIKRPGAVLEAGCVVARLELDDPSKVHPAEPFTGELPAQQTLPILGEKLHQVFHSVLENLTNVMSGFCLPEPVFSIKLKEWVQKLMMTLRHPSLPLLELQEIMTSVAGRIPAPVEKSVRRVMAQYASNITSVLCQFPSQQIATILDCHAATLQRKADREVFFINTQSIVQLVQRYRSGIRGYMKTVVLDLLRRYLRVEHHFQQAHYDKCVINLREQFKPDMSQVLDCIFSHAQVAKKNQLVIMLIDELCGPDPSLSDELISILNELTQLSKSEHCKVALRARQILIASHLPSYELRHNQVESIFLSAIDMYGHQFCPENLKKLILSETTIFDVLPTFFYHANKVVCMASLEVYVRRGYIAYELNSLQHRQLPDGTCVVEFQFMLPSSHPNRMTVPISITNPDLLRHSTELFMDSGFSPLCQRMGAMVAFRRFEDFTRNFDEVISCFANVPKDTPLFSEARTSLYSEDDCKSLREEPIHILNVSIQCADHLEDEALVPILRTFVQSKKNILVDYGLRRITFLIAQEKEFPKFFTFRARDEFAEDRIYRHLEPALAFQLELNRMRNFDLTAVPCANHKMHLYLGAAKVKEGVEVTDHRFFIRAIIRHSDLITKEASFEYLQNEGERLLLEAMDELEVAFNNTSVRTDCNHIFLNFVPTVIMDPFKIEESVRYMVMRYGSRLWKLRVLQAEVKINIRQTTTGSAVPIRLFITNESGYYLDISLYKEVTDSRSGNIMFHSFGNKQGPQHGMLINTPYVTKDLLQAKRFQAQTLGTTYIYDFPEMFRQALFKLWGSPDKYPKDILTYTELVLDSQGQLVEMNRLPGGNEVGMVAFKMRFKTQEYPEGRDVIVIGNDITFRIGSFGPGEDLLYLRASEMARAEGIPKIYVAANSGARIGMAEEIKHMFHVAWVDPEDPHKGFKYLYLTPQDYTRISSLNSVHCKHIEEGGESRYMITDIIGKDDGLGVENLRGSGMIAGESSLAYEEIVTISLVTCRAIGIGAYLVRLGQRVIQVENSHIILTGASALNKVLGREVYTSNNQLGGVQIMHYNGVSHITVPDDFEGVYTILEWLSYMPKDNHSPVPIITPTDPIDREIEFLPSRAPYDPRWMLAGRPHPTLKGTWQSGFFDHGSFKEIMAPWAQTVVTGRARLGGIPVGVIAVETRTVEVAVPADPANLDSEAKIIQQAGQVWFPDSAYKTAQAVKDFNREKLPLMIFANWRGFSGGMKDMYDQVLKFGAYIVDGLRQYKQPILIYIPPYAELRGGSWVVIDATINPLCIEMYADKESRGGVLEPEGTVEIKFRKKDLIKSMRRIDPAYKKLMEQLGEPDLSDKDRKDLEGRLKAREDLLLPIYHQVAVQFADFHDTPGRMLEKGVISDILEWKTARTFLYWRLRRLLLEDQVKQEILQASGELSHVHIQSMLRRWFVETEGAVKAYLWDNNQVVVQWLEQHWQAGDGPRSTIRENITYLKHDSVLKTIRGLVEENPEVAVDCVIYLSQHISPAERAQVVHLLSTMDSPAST

SMILES	IMCL (creatine ratio), tibialis anterior muscle (ZDF rats)	IC50 (recombinant human ACC2) [nM]	IMCL (creatine ratio), tibialis anterior muscle [1]	spontaneous motility (30 minutes) (Atgl knockout mice)	IMCL (creatine ratio), tibialis anterior muscle (SD rats)
C[C@@H](COC1CCC(Oc2nc3c(F)cc(OC4CC4)cc3n2C)CC1)NC(N)=O (stereo partly drawn) [Compound I-12]	significant IMCL decreasing effect	5.6	significant IMCL decreasing effect		
CC(=O)N[C@@H](C)CCC1OCC(Oc2nc3c(F)c(OC4CC4)ccc3n2C)CO1 (stereo partly drawn) [Compound I-13]		6.6		significant improving effect	significant IMCL decreasing effect
